Laboratory results as given in US20160346291A1, “COMPOSITIONS AND THERAPEUTIC METHODS FOR ACCELERATED PLAQUE REGRESSION” (Resverlogix Corp, priority 2013, published 2016).

System: ApoA-I mRNA
Assay: ApoA-I mRNA quantitation in HepG2 cells (real-time PCR)
Format: cell-based
Parameters: key: Active: An active compound is one that causes a >15% increase in ApoA-I mRNA at a concentration less than or equal to 100 uM
Settings: concentration less than or equal to 100 uM, fold induction relative to DMSO control
Experimental: At time of harvesting, the spent media was removed from the HepG2 cells and immediately placed on ice (for immediate use) or at −80° C. (for future use) in ApoA-I and albumin ELISAs. The cells remaining in the plate wells were rinsed in 200 μL PBS. PBS was carefully removed to avoid removing any loosely attached cells.
Once the PBS was removed, 85 μL cell lysis solution was added to the cells in each well and incubated for 5-10 min at room temperature, to allow for complete cell lysis and detachment. mRNA was then prepared using the “mRNA Catcher PLUS plate” from Invitrogen, according to the protocol supplied. After the last wash, as much wash buffer as possible was aspirated without allowing the wells to dry. Elution Buffer (E3, 80 μL) was then added to each well. mRNA was then eluted by incubating the mRNA Catcher PLUS plate with Elution Buffer for 5 min at 68° C. and then immediately placing the plate on ice.
The eluted mRNA was isolated and then used in a one-step real-time […]-PCR reaction, using components of the Ultra Sense Kit together with Applied Biosystems primer-probe mixes. Real-time PCR data was analyzed, using the Ct values, to determine the fold induction of each unknown sample, relative to the control (that is, relative to the control for each independent DMSO concentration).
The following compounds of Formula I were evaluated in this assay. An active compound is one that causes a >15% increase in ApoA-I mRNA at a concentration less than or equal to 100 uM.

Compound: Cc1cc(-c2nc3ccc(Br)cc3c(=O)[nH]2)cc(C)c1OCCO[Si](C)(C)C(C)(C)C [6-bromo-2-(4-(2-(tert-butyldimethylsilyloxy)ethoxy)-3,5-dimethylphenyl)quinazolin-4(3H)-one]
- Effect on ApoA-I mRNA levels: Active

Compound: COc1cc(OC)c2c(=O)[nH]c(-c3ccc4c(c3)OCCO4)nc2c1 [2-(2,3-dihydrobenzo[b][1,4]dioxin-6-yl)-5,7-dimethoxyquinazolin-4(3H)-one]
- Effect on ApoA-I mRNA levels: Active

Compound: COc1cc(OC)c2c(=O)[nH]c(-c3cc(C)c(O)c(C)c3)nc2c1 [2-(4-hydroxy-3,5-dimethylphenyl)-5,7-dimethoxyquinazolin-4(3H)-one]
- Effect on ApoA-I mRNA levels: Active

Compound: COc1cc(OC)c2c(=O)[nH]c(-c3ccc(N(C)C)c4ccccc34)nc2c1 [2-(4-(dimethylamino)naphthalene-1-yl)-5,7-dimethoxyquinazolin-4(3H)-one]
- Effect on ApoA-I mRNA levels: Active

Compound: COc1cc(OC)c2c(=O)[nH]c(-c3cc(C)c(/N=C/N(C)C)c(C)c3)nc2c1 [(E)-N′-(4-(5,7-dimethoxy-4-oxo-3,4-dihydroquinazolin-2-yl)-2,6-dimethylphenyl)-N,N-dimethylformimidamide]
- Effect on ApoA-I mRNA levels: Active

Compound: Cc1cc(-c2cc3ncccc3c(=O)[nH]2)cc(C)c1O [7-(4-hydroxy-3,5-dimethylphenyl)-1,6-naphthyridin-5(6H)-one]
- Effect on ApoA-I mRNA levels: Active

Compound: COc1cc(OC)c2c(=O)[nH]c(-c3ccc(OCCO)c(Cl)c3)nc2c1 [2-(3-chloro-4-(2-hydroxyethoxy)phenyl)-5,7-dimethoxyquinazolin-4(3H)-one]
- Effect on ApoA-I mRNA levels: Active

Compound: COc1cc(OC)c2c(=O)[nH]c(-c3cccc(C)n3)nc2c1 [5,7-dimethoxy-2-(6-methylpyridin-2-yl)quinazolin-4(3H)-one]
- Effect on ApoA-I mRNA levels: Active

Compound: COc1cc(OC)c2c(=O)[nH]c(-c3ccc(OCCO)c(C)c3)nc2c1 [2-(4-(2-hydroxyethoxy)-3-methylphenyl)-5,7-dimethoxyquinazolin-4(3H)-one]
- Effect on ApoA-I mRNA levels: Active

Compound: COc1cc2c(c(OC)c1)S(=O)(=O)NC(c1cc(C)c(O)c(C)c1)=C2 [6,8-dimethoxy-3-(4-hydroxy-3,5-dimethylphenyl)-2H-1,2-benzothiazine-1,1-dioxide]
- Effect on ApoA-I mRNA levels: Active

Compound: COc1cc(OC)c2c(=O)[nH]c(-c3ccc(OCCO)c(OC)c3)nc2c1 [2-(4-(2-hydroxyethoxy)-3-methoxyphenyl)-5,7-dimethoxyquinazolin-4(3H)-one]
- Effect on ApoA-I mRNA levels: Active

Compound: COc1cc(OC)c2cnc(-c3cc(C)c(O)c(C)c3)cc2c1 [4-(6,8-dimethoxyisoquinolin-3-yl)-2,6-dimethylphenol]
- Effect on ApoA-I mRNA levels: Active

Compound: COc1cc(OC)c2c(=O)[nH]c(-c3cccc([N+](=O)[O-])c3)nc2c1 [5,7-dimethoxy-2-(3-nitrophenyl)quinazolin-4(3H)-one]
- Effect on ApoA-I mRNA levels: Inactive

Compound: COc1cc(OC)c2c(=O)[nH]c(-c3cc(C)c(OCCNC(C)=O)c(C)c3)nc2c1 [N-(2-(4-(5,7-dimethoxy-4-oxo-3,4-dihydroquinazolin-2-yl)-2,6-dimethylphenoxy)ethyl)acetamide]
- Effect on ApoA-I mRNA levels: Active

Compound: COc1cc(OC)c2c(=O)[nH]c(-c3ccc(N(CCO)CCO)cc3)nc2c1 [2-(4-(bis(2-hydroxyethyl)amino)phenyl)-5,7-dimethoxyquinazolin-4(3H)-one]
- Effect on ApoA-I mRNA levels: Active

Compound: COc1cccc2c(=O)[nH]c(-c3ccc(O)c(F)c3)cc12 [3-(3-fluoro-4-hydroxyphenyl)-5-methoxyisoquinolin-1(2H)-one]
- Effect on ApoA-I mRNA levels: Inactive

Compound: Cc1cc(-c2cc3nc(OC(C)C)cc(OC(C)C)c3c(=O)[nH]2)cc(C)c1O [7-(4-hydroxy-3,5-dimethylphenyl)-2,4-diisopropoxy-1,6-naphthyridin-5(6H)-one]
- Effect on ApoA-I mRNA levels: Active

Compound: CCN1CCN(Cc2ccc(-c3nc4cc(OC)cc(OC)c4c(=O)[nH]3)cc2)CC1 [2-(4-((4-ethylpiperazin-1-yl)methyl)phenyl)-5,7-dimethoxyquinazolin-4(3H)-one]
- Effect on ApoA-I mRNA levels: Active
